Data as given in ChEMBL document CHEMBL1201862, “PubChem BioAssay data set” (2004).
The source made the active and inactive calls.

What was measured:
[1] = biological target: Cytochrome P450 3A4 (Homo sapiens, UniProt P08684);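 also: CYP3A4 tested as one member of a cytochrome P450 panel screen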
[2] = viability loss in HEK293T cells – cell-based, cherry-picks, cytotoxicity control for HIV Vif inhibitor project, dose response (AID 652208); format: functional
[3] = biological target: Cytochrome P450 2C9 (Homo sapiens, UniProt P11712)
Cytochrome P450 2C9, sequence (P11712 whole entry): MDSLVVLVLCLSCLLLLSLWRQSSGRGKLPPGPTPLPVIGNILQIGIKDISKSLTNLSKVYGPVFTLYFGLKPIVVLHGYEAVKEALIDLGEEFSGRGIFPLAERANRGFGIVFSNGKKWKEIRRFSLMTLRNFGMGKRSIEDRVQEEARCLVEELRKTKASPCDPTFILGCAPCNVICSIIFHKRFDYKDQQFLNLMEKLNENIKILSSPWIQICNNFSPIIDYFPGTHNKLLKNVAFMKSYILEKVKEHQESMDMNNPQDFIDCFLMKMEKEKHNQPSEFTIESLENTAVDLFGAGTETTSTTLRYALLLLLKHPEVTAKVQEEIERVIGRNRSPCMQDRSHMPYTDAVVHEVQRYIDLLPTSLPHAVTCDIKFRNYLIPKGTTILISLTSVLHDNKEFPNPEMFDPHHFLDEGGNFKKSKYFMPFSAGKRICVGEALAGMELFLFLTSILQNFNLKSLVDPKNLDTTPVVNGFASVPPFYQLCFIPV

[4] = mouse fibroblast viability loss – cell-based, cherry-pick samples, set 2, cytotoxicity control for T. cruzi growth inhibitor project, dose response (AID 651817); format: functional; settings: NIH3T3
[5] = biological target: T1, Beta-lactamase (Pseudomonas aeruginosa, UniProt Q79MP6); test: […] counterscreen for selective VIM-2 inhibitors: dose response biochemical high throughput screening assay to identify inhibitors of IMP-1 metallo-beta-lactamase.
T1 sequence (Q79MP6 whole entry): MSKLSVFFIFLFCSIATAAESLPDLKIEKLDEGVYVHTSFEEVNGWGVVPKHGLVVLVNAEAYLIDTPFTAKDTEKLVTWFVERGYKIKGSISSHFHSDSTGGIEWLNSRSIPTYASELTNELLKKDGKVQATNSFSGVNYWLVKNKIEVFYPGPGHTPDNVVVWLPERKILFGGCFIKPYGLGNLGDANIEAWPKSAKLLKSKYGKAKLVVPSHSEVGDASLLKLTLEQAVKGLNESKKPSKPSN

[6] = biological target: T2, Aminopeptidase N (Plasmodium falciparum FcB1/Columbia, UniProt O96935); test: malaria alanyl aminopeptidase activity blockers – biochemical, fluorogenic H-Leu-NHMec substrate, 1536-well (AID 1445); set-up: species or system Plasmodium falciparum 3D7, 3D7
T2 sequence (O96935 whole entry): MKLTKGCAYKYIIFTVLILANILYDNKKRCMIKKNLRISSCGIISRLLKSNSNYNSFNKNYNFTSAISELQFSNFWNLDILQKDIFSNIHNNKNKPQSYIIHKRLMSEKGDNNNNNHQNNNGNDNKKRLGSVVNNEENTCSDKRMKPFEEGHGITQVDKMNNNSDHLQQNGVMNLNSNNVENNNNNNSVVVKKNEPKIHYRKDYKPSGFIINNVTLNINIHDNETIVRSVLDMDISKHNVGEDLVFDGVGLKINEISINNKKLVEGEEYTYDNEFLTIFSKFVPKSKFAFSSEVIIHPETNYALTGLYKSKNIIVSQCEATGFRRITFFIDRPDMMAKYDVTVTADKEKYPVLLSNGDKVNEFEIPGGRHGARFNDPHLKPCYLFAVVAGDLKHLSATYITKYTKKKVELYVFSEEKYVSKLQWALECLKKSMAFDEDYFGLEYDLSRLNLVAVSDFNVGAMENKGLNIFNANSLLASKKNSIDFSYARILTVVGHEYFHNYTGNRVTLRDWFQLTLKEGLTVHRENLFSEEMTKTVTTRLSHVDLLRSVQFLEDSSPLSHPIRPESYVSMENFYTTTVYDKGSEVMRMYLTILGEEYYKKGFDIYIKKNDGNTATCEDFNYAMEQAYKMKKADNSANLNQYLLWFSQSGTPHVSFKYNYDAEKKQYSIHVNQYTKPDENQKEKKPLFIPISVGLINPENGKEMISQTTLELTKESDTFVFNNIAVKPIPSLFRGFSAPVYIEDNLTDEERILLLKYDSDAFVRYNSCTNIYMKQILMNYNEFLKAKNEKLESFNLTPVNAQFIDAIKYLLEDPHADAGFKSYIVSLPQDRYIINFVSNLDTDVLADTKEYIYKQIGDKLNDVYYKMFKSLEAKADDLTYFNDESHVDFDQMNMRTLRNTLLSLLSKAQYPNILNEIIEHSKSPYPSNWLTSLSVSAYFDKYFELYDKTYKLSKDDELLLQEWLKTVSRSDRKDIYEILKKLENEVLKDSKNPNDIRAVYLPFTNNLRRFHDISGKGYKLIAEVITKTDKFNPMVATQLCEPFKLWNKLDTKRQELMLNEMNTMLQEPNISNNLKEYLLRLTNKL

[7] = biological target: Beta-lactamase (Salmonella choleraesuis (strain SC-B67), UniProt Q5J463); test: Epi-absorbance-based counterscreen for selective VIM-2 inhibitors: dose response biochemical high throughput screening assay to identify inhibitors of TEM-1 serine-beta-lactamase.
Beta-lactamase (Salmonella choleraesuis (strain SC-B67), UniProt Q5J463), sequence (Q5J463 whole entry): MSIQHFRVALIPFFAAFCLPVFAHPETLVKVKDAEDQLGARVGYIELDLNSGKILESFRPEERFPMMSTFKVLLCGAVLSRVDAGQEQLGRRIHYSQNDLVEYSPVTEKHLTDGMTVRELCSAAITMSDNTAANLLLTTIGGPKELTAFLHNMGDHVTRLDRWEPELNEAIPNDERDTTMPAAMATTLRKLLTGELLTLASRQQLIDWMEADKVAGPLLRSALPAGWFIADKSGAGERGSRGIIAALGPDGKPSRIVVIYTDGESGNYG

[8] = biological target: T1, Beta-lactamase; test: inhibition of IMP-1 beta-lactamase activity – biochemical, epi-absorbance, selectivity assay for VIM-2 inhibitor project, dose response (AID 1920)
[9] = biological target: Phospholipase A2 (Homo sapiens, UniProt P04054); format: functional;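 also: confirmatory dose-response counterscreen on phospholipase A2, testing hits that came from an ultra-high-throughput screen for ATG4B inhibitors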
Phospholipase A2, sequence (P04054 whole entry): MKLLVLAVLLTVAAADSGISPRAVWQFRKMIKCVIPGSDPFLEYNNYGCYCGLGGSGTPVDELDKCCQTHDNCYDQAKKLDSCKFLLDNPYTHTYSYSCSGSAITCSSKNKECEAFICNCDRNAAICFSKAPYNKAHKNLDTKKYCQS

[10] = biological target: T3, Cysteine protease ATG4B (Homo sapiens, UniProt Q9Y4P1); format: functional;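 also: Fluorescence-based dose-response confirmation assay measuring inhibition of ATG4B activity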
T3 sequence (Q9Y4P1 whole entry): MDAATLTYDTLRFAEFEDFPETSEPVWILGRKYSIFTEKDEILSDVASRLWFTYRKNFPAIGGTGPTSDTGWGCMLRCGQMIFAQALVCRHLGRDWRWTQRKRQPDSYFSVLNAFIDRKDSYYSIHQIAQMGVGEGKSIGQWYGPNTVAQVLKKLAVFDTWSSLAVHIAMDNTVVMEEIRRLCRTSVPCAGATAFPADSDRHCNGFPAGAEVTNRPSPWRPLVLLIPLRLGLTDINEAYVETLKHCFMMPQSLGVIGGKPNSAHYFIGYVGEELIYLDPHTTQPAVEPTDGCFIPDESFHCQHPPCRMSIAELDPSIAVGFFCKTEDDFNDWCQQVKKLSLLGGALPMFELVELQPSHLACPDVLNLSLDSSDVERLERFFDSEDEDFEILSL

[11] = HGIII-sPLA2 enzyme inhibition potency – biochemical, QFRET, IC50, dose response (AID 743457);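 also: green fluorescence rise as the enzyme cleaves BODIPY PC-A2 in liposomes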
[12] = biological target: Nonstructural protein 1 (Influenza A virus, UniProt Q194T2); format: functional, Influenza A virus (A/California/07/2009(H1N1))
Nonstructural protein 1, sequence (Q194T2 whole entry): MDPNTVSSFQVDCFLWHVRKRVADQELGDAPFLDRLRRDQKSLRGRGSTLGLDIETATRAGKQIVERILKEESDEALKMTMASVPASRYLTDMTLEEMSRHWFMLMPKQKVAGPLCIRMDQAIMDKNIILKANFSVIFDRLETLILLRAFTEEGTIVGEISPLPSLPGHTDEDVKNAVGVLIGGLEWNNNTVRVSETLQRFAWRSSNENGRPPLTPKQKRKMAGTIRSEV

[13] = biological target: Histone-lysine N-methyltransferase NSD2 (Homo sapiens, UniProt O96028); format: biochemical
Histone-lysine N-methyltransferase NSD2, sequence (O96028 whole entry): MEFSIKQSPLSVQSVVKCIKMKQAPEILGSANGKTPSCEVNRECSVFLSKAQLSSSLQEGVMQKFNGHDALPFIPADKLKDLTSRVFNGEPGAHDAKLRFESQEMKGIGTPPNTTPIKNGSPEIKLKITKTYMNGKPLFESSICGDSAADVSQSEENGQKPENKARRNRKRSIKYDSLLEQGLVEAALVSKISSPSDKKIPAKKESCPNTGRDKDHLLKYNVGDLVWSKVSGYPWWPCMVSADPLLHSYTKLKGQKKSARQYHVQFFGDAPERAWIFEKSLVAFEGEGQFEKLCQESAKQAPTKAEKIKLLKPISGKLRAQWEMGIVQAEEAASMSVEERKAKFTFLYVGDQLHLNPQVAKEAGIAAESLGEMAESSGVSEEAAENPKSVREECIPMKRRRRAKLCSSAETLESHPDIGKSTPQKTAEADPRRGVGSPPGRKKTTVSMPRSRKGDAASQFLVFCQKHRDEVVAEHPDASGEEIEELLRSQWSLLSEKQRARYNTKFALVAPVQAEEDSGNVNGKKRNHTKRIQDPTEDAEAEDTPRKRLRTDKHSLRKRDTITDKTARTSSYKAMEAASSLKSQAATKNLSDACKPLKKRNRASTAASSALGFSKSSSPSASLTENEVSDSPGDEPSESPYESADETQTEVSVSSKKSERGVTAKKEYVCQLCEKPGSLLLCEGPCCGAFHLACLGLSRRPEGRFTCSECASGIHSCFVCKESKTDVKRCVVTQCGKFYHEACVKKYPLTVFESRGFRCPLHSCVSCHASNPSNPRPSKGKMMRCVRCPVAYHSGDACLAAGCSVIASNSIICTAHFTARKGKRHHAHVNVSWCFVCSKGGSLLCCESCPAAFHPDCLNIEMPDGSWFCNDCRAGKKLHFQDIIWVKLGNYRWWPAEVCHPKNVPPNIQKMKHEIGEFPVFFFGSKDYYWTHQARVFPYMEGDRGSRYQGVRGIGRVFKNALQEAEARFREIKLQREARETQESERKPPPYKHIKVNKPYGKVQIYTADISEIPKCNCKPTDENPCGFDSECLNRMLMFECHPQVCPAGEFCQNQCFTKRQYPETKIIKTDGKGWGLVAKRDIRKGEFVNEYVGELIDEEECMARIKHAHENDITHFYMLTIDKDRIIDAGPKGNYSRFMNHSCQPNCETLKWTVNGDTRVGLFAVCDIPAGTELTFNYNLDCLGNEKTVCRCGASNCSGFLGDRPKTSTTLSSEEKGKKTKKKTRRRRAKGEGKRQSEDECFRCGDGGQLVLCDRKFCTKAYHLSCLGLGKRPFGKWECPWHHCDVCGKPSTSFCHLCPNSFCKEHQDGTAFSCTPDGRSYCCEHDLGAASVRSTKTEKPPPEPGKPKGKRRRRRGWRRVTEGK

[14] = biological target: Galanin receptor type 3 (Homo sapiens, UniProt O60755); test: Fluorescence-based cell-based primary high throughput dose response assay to identify antagonists of the Galanin Receptor 3 (GalR3).; format: functional
Galanin receptor type 3, sequence (O60755 whole entry): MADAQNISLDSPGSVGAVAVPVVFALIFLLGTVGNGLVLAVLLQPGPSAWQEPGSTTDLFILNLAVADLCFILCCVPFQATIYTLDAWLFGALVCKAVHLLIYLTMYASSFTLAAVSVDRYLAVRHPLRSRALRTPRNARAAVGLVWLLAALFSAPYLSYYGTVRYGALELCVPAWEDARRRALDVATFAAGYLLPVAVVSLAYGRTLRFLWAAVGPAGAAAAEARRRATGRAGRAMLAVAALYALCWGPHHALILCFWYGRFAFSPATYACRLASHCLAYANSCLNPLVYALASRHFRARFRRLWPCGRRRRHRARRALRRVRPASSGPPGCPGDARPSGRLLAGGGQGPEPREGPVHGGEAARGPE

[15] = cells; format: functional, cell-based; settings: HEK-CNG
[16] = CMV-driven luciferase expression suppression in HEK293 – cell-based, luminescence, dry powder, counter-screen for Pax8 inhibitor project, dose response (AID 743020); format: functional
[17] = tested on: Vero; test: viability loss in Vero cells – cell-based, plate reader, cherry-pick samples, cytotoxicity control, dose response (AID 687020); format: functional; settings: Chlorocebus sabaeus
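For EC50 in this document: target is galanin receptor GalR3 read with a cAMP biosensor in HEK293 cells.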

Cytochrome P450 3A4, sequence (P08684 whole entry): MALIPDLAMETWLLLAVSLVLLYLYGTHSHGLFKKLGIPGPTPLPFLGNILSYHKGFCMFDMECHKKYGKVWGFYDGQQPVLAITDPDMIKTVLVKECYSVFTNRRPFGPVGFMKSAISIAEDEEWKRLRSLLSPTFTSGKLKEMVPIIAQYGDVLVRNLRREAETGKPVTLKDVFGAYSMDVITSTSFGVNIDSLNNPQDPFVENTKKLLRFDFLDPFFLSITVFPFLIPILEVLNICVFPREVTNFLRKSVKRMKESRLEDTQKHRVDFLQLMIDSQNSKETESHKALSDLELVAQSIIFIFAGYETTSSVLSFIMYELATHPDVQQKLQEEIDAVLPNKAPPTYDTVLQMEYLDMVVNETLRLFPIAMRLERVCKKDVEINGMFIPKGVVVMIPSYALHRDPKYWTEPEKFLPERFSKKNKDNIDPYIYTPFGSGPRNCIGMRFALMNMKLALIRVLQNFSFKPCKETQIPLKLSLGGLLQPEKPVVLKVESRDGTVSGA

CCCc1cc(=O)oc2cc(OCc3cc(OC)c(OC)c(OC)c3)c(Cl)cc12
AC50 [1]: 3.55 µM (inconclusive)
AC50 [2]: > 52 µM (inactive)
AC50 [3]: 1 µM (inconclusive)

C[C@H]1CN([C@@H](C)CO)C(=O)c2cccc(NC(=O)c3nc4ccccc4s3)c2O[C@@H]1CN(C)Cc1ccc2c(c1)OCO2
AC50 [4]: 9.31 µM (active)

Cc1cc(OCc2cc(C(=O)O)oc2C)c2c3c(c(=O)oc2c1)CCCC3
IC50 [5]: > 59.6 µM (inactive)
IC50 [6]: 66.4 µM (active)
IC50 [7]: > 59.6 µM (inactive)
IC50 [8]: > 59.6 µM (inactive)
IC50 [9]: 13.5 µM (active)
IC50 [10]: 17.3 µM (active)

Cc1ccc(N2CCOCC2)c2c1C(=O)c1ccccc1C2=O
IC50 [11]: > 122 µM (inactive)
IC50 [12]: 14.5 µM (active)
AC50 [13]: 10.5 µM (active)

COc1ccc(CN2CCC(C(=O)Nc3ccc(Oc4ccccc4)nc3)CC2)cc1F
IC50 [14]: 3.56 µM (active)
EC50 [15]: > 29.9 µM (inactive)

CC1CCN(CCOc2ccc(OCc3ccccc3)cc2)CC1
AC50 [16]: < 9.29 µM (active)
AC50 [17]: 25.9 µM (active)

Cc1cc(C(=O)OCC(=O)NC(=O)c2cccn2C)c2ccccc2n1
IC50 [5]: > 59.6 µM (inactive)
IC50 [7]: > 59.6 µM (inactive)
IC50 [8]: > 59.6 µM (inactive)

C[C@@H]1CN([C@@H](C)CO)C(=O)c2cccc(NC(=O)c3ccncc3)c2O[C@@H]1CN(C)Cc1ccccc1
AC50 [4]: 39 µM (inactive)
